The values that follow come from patent US10501518B2 (priority 2013, dated 2019).

In general, IC50 refers to the concentration at which inhibition is half-maximal. The EC50 is the midpoint of the concentration-response curve.

The target in one test is T1, PTHR1 (Homo sapiens, UniProt Q03431).
T1 sequence (Q03431 27-593): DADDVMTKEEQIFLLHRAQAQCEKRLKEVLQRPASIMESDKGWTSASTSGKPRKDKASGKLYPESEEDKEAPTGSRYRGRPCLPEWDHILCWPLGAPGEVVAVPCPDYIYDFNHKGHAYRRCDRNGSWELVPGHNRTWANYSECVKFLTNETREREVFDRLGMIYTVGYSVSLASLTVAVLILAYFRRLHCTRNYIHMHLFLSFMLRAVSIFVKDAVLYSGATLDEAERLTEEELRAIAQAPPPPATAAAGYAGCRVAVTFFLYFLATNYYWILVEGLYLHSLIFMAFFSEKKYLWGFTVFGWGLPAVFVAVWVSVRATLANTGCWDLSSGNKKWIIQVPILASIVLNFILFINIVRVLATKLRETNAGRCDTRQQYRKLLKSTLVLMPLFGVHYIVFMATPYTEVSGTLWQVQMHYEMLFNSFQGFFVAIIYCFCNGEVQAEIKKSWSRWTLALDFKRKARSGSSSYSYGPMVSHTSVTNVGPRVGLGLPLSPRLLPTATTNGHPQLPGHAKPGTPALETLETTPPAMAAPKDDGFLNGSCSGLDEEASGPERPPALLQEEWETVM
Kind of test: Inhibition of PTH-induced PTHR1 cAMP signaling by bPTH(7-34) analogs. The conditions noted are these: Table 18; [Inhibitor] = 1 μM.

In another test the target is T2, R^0 form of human PTHR-1 (Homo sapiens, UniProt Q03431).
T2 construct: expressed in transfected cells; host or cells: COS-7
T2 sequence (Q03431 27-593): T1 sequence (Q03431 27-593)
Kind of test: Radio-ligand competition binding to R^0 form of human PTHR-1 (COS-7 membranes, 125I-PTH(1-34) tracer, GTPγS). From the text:
(§1) Data are means (±SEM) of n≥4 experiments, each performed in duplicate.

The next test concerns the target T3, RG form of human PTHR-1 (Homo sapiens, UniProt Q03431).
T3 construct: expressed in transfected cells; host or cells: COS-7
T3 sequence (Q03431 27-593): T1 sequence (Q03431 27-593)
Kind of test: Radio-ligand competition binding to RG form of human PTHR-1 (COS-7 membranes, 125I-M-PTH(1-15) tracer, high affinity Gαs mutant).
Excerpt: as §1

A further test concerns the target T4, R^0 form of rat PTHR-1 (Rattus norvegicus, UniProt P25961).
T4 construct: expressed in transfected cells; host or cells: COS-7
T4 sequence (P25961 27-591): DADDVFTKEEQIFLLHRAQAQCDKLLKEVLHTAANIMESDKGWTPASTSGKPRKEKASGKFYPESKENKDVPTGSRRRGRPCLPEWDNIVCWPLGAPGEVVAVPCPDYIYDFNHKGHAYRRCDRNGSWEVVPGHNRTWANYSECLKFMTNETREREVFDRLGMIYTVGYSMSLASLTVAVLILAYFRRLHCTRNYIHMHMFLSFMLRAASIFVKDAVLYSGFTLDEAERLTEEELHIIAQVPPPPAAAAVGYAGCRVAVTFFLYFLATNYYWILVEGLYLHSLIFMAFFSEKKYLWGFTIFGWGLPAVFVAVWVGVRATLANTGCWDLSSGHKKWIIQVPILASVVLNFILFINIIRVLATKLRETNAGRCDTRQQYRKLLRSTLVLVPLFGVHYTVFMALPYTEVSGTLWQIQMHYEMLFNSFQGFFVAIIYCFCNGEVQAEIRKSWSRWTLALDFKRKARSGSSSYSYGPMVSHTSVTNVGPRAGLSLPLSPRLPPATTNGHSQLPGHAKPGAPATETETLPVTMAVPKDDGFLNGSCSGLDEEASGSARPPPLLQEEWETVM
Nature of the test: Radio-ligand competition binding to R^0 form of rat PTHR-1. The conditions noted are these: Table 5; ratio of R^0 to RG IC50, rat PTHR-1.
Excerpt: as §1

A further test has as its target T5, RG form of rat PTHR-1 (Rattus norvegicus, UniProt P25961).
T5 construct: expressed in transfected cells; host or cells: COS-7
T5 sequence (P25961 27-591): T4 sequence (P25961 27-591)
Nature of the test: Radio-ligand competition binding to RG form of rat PTHR-1. The note with it: Table 5; rat PTHR-1; mean ± SEM; read-out: RG -log (IC50) (converted).
Excerpt: as §1

The next test addresses T6, WT human PTHR-1 (Homo sapiens, UniProt Q03431).
T6 construct: bioactivity of the resulting compound in full-length hPTHR-1 and a truncated version; expressed in transfected cells
T6 sequence (Q03431 27-593): T1 sequence (Q03431 27-593)
Kind of test: cAMP GloSensor dose-response in GP-2.3 cells expressing human PTHR-1. The test is classed as cell-based. The conditions noted are these: for cAMP (hPTHR-1) Max: Table 1, luminescence counts per second relative to PTH(1-34); for cAMP (hPTHR-1) Max / Max: 12-16 minutes after ligand addition; for Max: GP-2.3 cells, mean ± SEM. An outline of the steps:
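Confluent cells preloaded with 0.5 mM d-luciferin at room temperature until luminescence baseline stabilised (30 min), then given varying agonist concentrations. Luminescence time course recorded after α/β-peptide addition. Means ±SEM of n>4 experiments, each in duplicate.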

The target in the next test is T7, WT rat PTHR-1 (Rattus norvegicus, UniProt P25961).
T7 construct: expressed in transfected cells
T7 sequence (P25961 27-591): T4 sequence (P25961 27-591)
Nature of the test: cAMP GloSensor dose-response in GR-35 cells expressing rat PTHR-1. It is filed as cell-based. The conditions noted are these: Table 7; for Max: 12-16 minutes after ligand addition, mean ± SEM.

Where two headings read alike, the source gives them in different places. Non-standard residues stand in square brackets, D forms with d. Residues, ends and D or L forms follow the SMILES beside them. No end group written: not given here. β3hW = N[C@H](CC(=O)O)Cc1c[nH]c2ccccc12; β3hE = N[C@@H](CCC(=O)O)CC(=O)O; β3hF = N[C@H](CC(=O)O)Cc1ccccc1; β3hN = NC(=O)C[C@H](N)CC(=O)O; β3hK = NCCCC[C@H](N)CC(=O)O; β3hM = CSCC[C@H](N)CC(=O)O; β3hD = NC(CC(=O)O)CC(=O)O

With “XMHNLWKWLSSMERVEWLRKKLQDVHNF-NH2 [D6 bPTH(7-34) dTrp12 ACPC7]”, at PTHR1, the “EC50(+)inhibitor/EC50(−)inhibitor” value is 4.38.

Consider “LMHNLGKHLNSMERVEWLRKKLQDVHNF-NH2 [hPTH(7-34), reference compound]”, for which, at PTHR1, the “EC50(+)inhibitor/EC50(−)inhibitor” value was determined as 1.60.

As to “FMHNLWKHLSSMERVEWLRKKLQDVHNF-NH2 [bPTH(7-34)dTrp12, reference compound]”, the “EC50(+)inhibitor/EC50(−)inhibitor” value at PTHR1 was 60.12.

Turning to “XMHNLWKXLSSXERVZWLRZKLQXVHNX-NH2 [FCycD6 bPTH(7-34) dTrp12 ACPC7]”, on PTHR1, the “EC50(+)inhibitor/EC50(−)inhibitor” value was 3.50.

Take `CC[C@H](C)[C@H](NC(=O)[C@H](CCC(=O)O)NC(=O)[C@H](CO)NC(=O)[C@@H](NC(=O)[C@@H](N)CO)C(C)C)C(=O)N[C@@H](CCC(N)=O)C(=O)N[C@@H](CC(C)C)C(=O)N[C@@H](CCSC)C(=O)N[C@@H](Cc1c[nH]cn1)C(=O)N[C@@H](CC(N)=O)CC(=O)N[C@@H](CC(C)C)C(=O)NCC(=O)N[C@@H](CCCCN)C(=O)N[C@H](CC(=O)N[C@@H](CC(C)C)C(=O)N[C@@H](CC(N)=O)C(=O)N[C@@H](CO)C(=O)N[C@@H](CCSC)CC(=O)N[C@@H](CCC(=O)O)C(=O)N[C@@H](CCCNC(=N)N)C(=O)N[C@H](C(=O)N[C@@H](CCC(=O)O)CC(=O)N[C@@H](Cc1c[nH]c2ccccc12)C(=O)N[C@@H](CC(C)C)C(=O)N[C@@H](CCCNC(=N)N)C(=O)N[C@@H](CCCCN)CC(=O)N[C@@H](CCCCN)C(=O)N[C@@H](CC(C)C)C(=O)N[C@@H](CCC(N)=O)C(=O)N[C@@H](CC(=O)O)CC(=O)N[C@H](C(=O)N[C@@H](Cc1c[nH]cn1)C(=O)N[C@@H](CC(N)=O)C(=O)N[C@H](CC(N)=O)Cc1ccccc1)C(C)C)C(C)C)Cc1c[nH]c2ccccc12` [D7] (H-SVSEIQLMH[β3hN]LGK[β3hW]LNS[β3hM]ERV[β3hE]WLR[β3hK]KLQ[β3hD]VHN[β3hF]-NH2): the IC50 on R^0 form of human PTHR-1 was 3.5 nM; at RG form of human PTHR-1 it was 0.24 nM; at RG form of human PTHR-1 (Table 4, human PTHR-1, mean ± SEM, read-out: RG -log (IC50) (converted)) it was 0.234 nM; at RG form of rat PTHR-1, 2.04 nM. The “R^0/RG” value on R^0 form of human PTHR-1 (Table 4, ratio of R^0 to RG IC50, human PTHR-1) turned out to be 15; at R^0 form of rat PTHR-1, 7. For the same compound, the half-maximal effective concentration (EC50) at WT human PTHR-1 came to 0.39 nM; on WT rat PTHR-1 (GR-35 cells, read-out: EC50) it was 1.62 nM. At WT human PTHR-1, the “cAMP (hPTHR-1) Max” value is 0.85. Besides, the “Fold nM PTH(1-34)” value came to 2.26 at WT human PTHR-1 (Table 6, EC50 relative to PTH(1-34)) and 3.89 at WT rat PTHR-1 (EC50 relative to PTH(1-34)). The Max at WT human PTHR-1 (Table 6) is listed as 184 ± 18 luminescence counts per second × 10^−3; on WT rat PTHR-1 (GR-35 cells) it was 40 ± 18 luminescence counts per second × 10−3.

On to “FMHNLWKWLSSMERVEWLRKKLQDVHNF-NH2 [D6 bPTH(7-34) dTrp12]”, for which the “EC50(+)inhibitor/EC50(−)inhibitor” value at PTHR1 turned out to be 16.49.

As for `CC[C@H](C)[C@H](NC(=O)[C@H](CCC(=O)O)NC(=O)[C@H](CO)NC(=O)[C@@H](NC(=O)[C@@H](N)CO)C(C)C)C(=O)N[C@@H](CCC(N)=O)C(=O)N[C@@H](CC(C)C)C(=O)N[C@@H](CCSC)C(=O)N[C@@H](Cc1c[nH]cn1)C(=O)N[C@@H](CC(N)=O)C(=O)N[C@@H](CC(C)C)C(=O)NCC(=O)N[C@@H](CCCCN)C(=O)N[C@@H](Cc1c[nH]cn1)C(=O)N[C@@H](CC(C)C)C(=O)N[C@@H](CC(N)=O)C(=O)N[C@@H](CO)C(=O)N[C@@H](CCSC)CC(=O)N[C@@H](CCC(=O)O)C(=O)N[C@@H](CCCNC(=N)N)C(=O)N[C@H](C(=O)N[C@@H](CCC(=O)O)CC(=O)N[C@@H](Cc1c[nH]c2ccccc12)C(=O)N[C@@H](CC(C)C)C(=O)N[C@@H](CCCNC(=N)N)C(=O)N[C@@H](CCCCN)CC(=O)N[C@@H](CCCCN)C(=O)N[C@@H](CC(C)C)C(=O)N[C@@H](CCC(N)=O)C(=O)N[C@@H](CC(=O)O)CC(=O)N[C@H](C(=O)N[C@@H](Cc1c[nH]cn1)C(=O)N[C@@H](CC(N)=O)C(=O)N[C@H](CC(N)=O)Cc1ccccc1)C(C)C)C(C)C` [D5], on RG form of rat PTHR-1, the 50% inhibitory concentration (IC50) is 1.74 nM. Moreover, the “cAMP (hPTHR-1) Max” value on WT human PTHR-1 is 1.03. Further, the results for the Max on WT human PTHR-1 (Table 6) and at WT rat PTHR-1 (GR-35 cells) were 223 ± 36 luminescence counts per second × 10^−3 and 43 ± 17 luminescence counts per second × 10−3, respectively.
